Laboratory results reported in the supplement of paper PMC10307832.

What was measured:
Experiment in all cases: relative viability (nuclei count vs DMSO), 5 days (fraction); higher = more cells survive
EPLC-272H = tested on: EPLC-272H
How it was run: (§1)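 Lung cancer cell lines in 1536-well plates got either a single drug or a fixed anchor-drug dose together with five library-drug doses (not always all listed) in √10 steps, by pin tool, on the day after seeding. Nuclei were counted after 5 days, and relative viability is the treated-to-vehicle ratio of nuclei counts. Values are medians of duplicate plates.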

NCI-H1975 = tested on: NCI-H1975
How it was run: as §1

NCI-H2085 = tested on: NCI-H2085
How it was run: as §1

NCI-H2023 = tested on: NCI-H2023
How it was run: as §1

HARA = tested on: HARA
How it was run: as §1

HCC-366 = tested on: HCC-366
How it was run: as §1

UMC-11 = tested on: UMC-11
How it was run: as §1

NCI-H1437 = tested on: NCI-H1437
How it was run: as §1

NCI-H727 = tested on: NCI-H727
How it was run: as §1

HCC-15 = tested on: HCC-15
How it was run: as §1

NCI-H1395 = tested on: NCI-H1395
How it was run: as §1

HCC-78 = tested on: HCC-78
How it was run: as §1

SK-LU-1 = tested on: SK-LU-1
How it was run: as §1

HCC-827 = tested on: HCC-827
How it was run: as §1

NCI-H2405 = tested on: NCI-H2405
How it was run: as §1

COR-L23 = tested on: COR-L23
How it was run: as §1

NCI-H1792 = tested on: NCI-H1792
How it was run: as §1

NCI-H1944 = tested on: NCI-H1944
How it was run: as §1

HCC-44 = tested on: HCC-44
How it was run: as §1

COR-L 105 = tested on: COR-L 105
How it was run: as §1

NCI-H661 = tested on: NCI-H661
How it was run: as §1

NCI-H358 = tested on: NCI-H358
How it was run: as §1

O=C(O)CCCCC(CCSCc1ccccc1)SCc1ccccc1 (centres undefined) [CPI-613] + CS(=O)(=O)CCNCc1ccc(-c2ccc3ncnc(Nc4ccc(OCc5cccc(F)c5)c(Cl)c4)c3c2)o1 [Lapatinib] (partner 2 µM)
relative viability (EPLC-272H; first compound 5 µM): 0.905
relative viability (EPLC-272H; first compound 15.81 µM): 0.828
relative viability (EPLC-272H; first compound 50 µM): 0.879
relative viability (EPLC-272H; first compound 158.11 µM): 1
relative viability (EPLC-272H; first compound 500 µM): 0.857
relative viability (NCI-H1975; first compound 5 µM): 0.89
relative viability (NCI-H1975; first compound 15.81 µM): 0.832
relative viability (NCI-H1975; first compound 50 µM): 0.821
relative viability (NCI-H1975; first compound 158.11 µM): 0.824
relative viability (NCI-H1975; first compound 500 µM): 0.0608
relative viability (NCI-H2085; first compound 5 µM): 0.813
relative viability (NCI-H2085; first compound 15.81 µM): 0.728
relative viability (NCI-H2085; first compound 50 µM): 0.709
relative viability (NCI-H2085; first compound 158.11 µM): 0.674
relative viability (NCI-H2085; first compound 500 µM): 0.516
relative viability (NCI-H2023; first compound 5 µM): 0.694
relative viability (NCI-H2023; first compound 15.81 µM): 0.63
relative viability (NCI-H2023; first compound 50 µM): 0.755
relative viability (NCI-H2023; first compound 158.11 µM): 0.0743
relative viability (NCI-H2023; first compound 500 µM): 0.0041
relative viability (HARA; first compound 5 µM): 0.702
relative viability (HARA; first compound 15.81 µM): 0.678
relative viability (HARA; first compound 50 µM): 0.792
relative viability (HARA; first compound 158.11 µM): 0.521
relative viability (HARA; first compound 500 µM): 0.0307
relative viability (HCC-366; first compound 5 µM): 0.959
relative viability (HCC-366; first compound 15.81 µM): 1.02
relative viability (HCC-366; first compound 50 µM): 1
relative viability (HCC-366; first compound 158.11 µM): 0.284
relative viability (HCC-366; first compound 500 µM): 0.0085
relative viability (UMC-11; first compound 5 µM): 1.08
relative viability (UMC-11; first compound 15.81 µM): 1.11
relative viability (UMC-11; first compound 50 µM): 0.789
relative viability (UMC-11; first compound 158.11 µM): 0.438
relative viability (UMC-11; first compound 500 µM): 0.119
relative viability (NCI-H1437; first compound 5 µM): 0.772
relative viability (NCI-H1437; first compound 15.81 µM): 0.685
relative viability (NCI-H1437; first compound 50 µM): 0.746
relative viability (NCI-H1437; first compound 158.11 µM): 0.185
relative viability (NCI-H1437; first compound 500 µM): 0.0285
relative viability (NCI-H727; first compound 5 µM): 0.739
relative viability (NCI-H727; first compound 15.81 µM): 0.609
relative viability (NCI-H727; first compound 50 µM): 0.683
relative viability (NCI-H727; first compound 158.11 µM): 0.673
relative viability (NCI-H727; first compound 500 µM): 0.0973
relative viability (HCC-15; first compound 5 µM): 0.785
relative viability (HCC-15; first compound 15.81 µM): 0.801
relative viability (HCC-15; first compound 50 µM): 0.682
relative viability (HCC-15; first compound 158.11 µM): 0.599
relative viability (HCC-15; first compound 500 µM): 0.285
relative viability (NCI-H1395; first compound 5 µM): 1.01
relative viability (NCI-H1395; first compound 15.81 µM): 0.91
relative viability (NCI-H1395; first compound 50 µM): 1.08
relative viability (NCI-H1395; first compound 158.11 µM): 0.773
relative viability (NCI-H1395; first compound 500 µM): 0.894
relative viability (HCC-78; first compound 5 µM): 0.825
relative viability (HCC-78; first compound 15.81 µM): 0.591
relative viability (HCC-78; first compound 158.11 µM): 0.816
relative viability (HCC-78; first compound 500 µM): 1.14
relative viability (SK-LU-1; first compound 5 µM): 0.818
relative viability (SK-LU-1; first compound 15.81 µM): 0.692
relative viability (SK-LU-1; first compound 50 µM): 0.752
relative viability (SK-LU-1; first compound 158.11 µM): 0.587
relative viability (SK-LU-1; first compound 500 µM): 0.379
relative viability (HCC-827; first compound 5 µM): 0.212
relative viability (HCC-827; first compound 15.81 µM): 0.181
relative viability (HCC-827; first compound 50 µM): 0.196
relative viability (HCC-827; first compound 158.11 µM): 0.173
relative viability (HCC-827; first compound 500 µM): 0.0605
relative viability (NCI-H2405; first compound 5 µM): 1.09
relative viability (NCI-H2405; first compound 15.81 µM): 1.12
relative viability (NCI-H2405; first compound 50 µM): 1.09
relative viability (NCI-H2405; first compound 158.11 µM): 0.979
relative viability (NCI-H2405; first compound 500 µM): 0.902
relative viability (COR-L23; first compound 5 µM): 0.826
relative viability (COR-L23; first compound 15.81 µM): 0.969
relative viability (COR-L23; first compound 50 µM): 0.746
relative viability (COR-L23; first compound 158.11 µM): 0.459
relative viability (COR-L23; first compound 500 µM): 0.0098
relative viability (NCI-H1792; first compound 5 µM): 0.841
relative viability (NCI-H1792; first compound 15.81 µM): 0.846
relative viability (NCI-H1792; first compound 50 µM): 0.838
relative viability (NCI-H1792; first compound 158.11 µM): 0.72
relative viability (NCI-H1792; first compound 500 µM): 0.9
relative viability (NCI-H1944; first compound 5 µM): 0.818
relative viability (NCI-H1944; first compound 15.81 µM): 0.725
relative viability (NCI-H1944; first compound 50 µM): 0.753
relative viability (NCI-H1944; first compound 158.11 µM): 0.77
relative viability (NCI-H1944; first compound 500 µM): 0.632
relative viability (HCC-44; first compound 5 µM): 0.991
relative viability (HCC-44; first compound 15.81 µM): 0.937
relative viability (HCC-44; first compound 50 µM): 1.04
relative viability (HCC-44; first compound 158.11 µM): 0.838
relative viability (HCC-44; first compound 500 µM): 0.0306
relative viability (COR-L 105; first compound 5 µM): 0.364
relative viability (COR-L 105; first compound 15.81 µM): 0.323
relative viability (COR-L 105; first compound 50 µM): 0.377
relative viability (COR-L 105; first compound 158.11 µM): 0.291
relative viability (COR-L 105; first compound 500 µM): 0.263
relative viability (NCI-H661; first compound 5 µM): 0.419
relative viability (NCI-H661; first compound 15.81 µM): 0.367
relative viability (NCI-H661; first compound 50 µM): 0.581
relative viability (NCI-H661; first compound 158.11 µM): 0.49
relative viability (NCI-H661; first compound 500 µM): 0.576
relative viability (NCI-H358; first compound 5 µM): 0.416
relative viability (NCI-H358; first compound 15.81 µM): 0.436
relative viability (NCI-H358; first compound 50 µM): 0.409
relative viability (NCI-H358; first compound 158.11 µM): 0.296
relative viability (NCI-H358; first compound 500 µM): 0.0347
